What all share (type): toxicity, cell-based
Data set [1] deals with HEK-293T. The data set can be described thus: Incucyte cell viability with HEK293T. The note with it: human, 10 µM, compound concentration 10 uM.
Data set [2] concerns Fibroblast. The data set can be described thus: Incucyte cell viability with human fibroblast. As to conditions: 10 µM, compound concentration 10 uM.
Data set [3] has as its system U2OS. The data set can be described thus: Incucyte cell viability with U2OS. As to conditions: human, 10 µM, compound concentration 10 uM.
Where [4] appears, read: 0 h, replicate number 2, timepoint 0 hours.
Setting [5] is: 12 h, replicate number 1, timepoint 12 hours.
Setting [6] is: 18 h, replicate number 1, timepoint 18 hours.
Setting [7] is: 24 h, replicate number 1, timepoint 24 hours.
[8] abbreviates: 0 h, replicate number 1, timepoint 0 hours.
Setting [9] is: 6 h, replicate number 1, timepoint 6 hours.
The mark [10] stands for this setting: 18 h, replicate number 2, timepoint 18 hours.
Where [11] appears, read: 6 h, replicate number 2, timepoint 6 hours.
The mark [12] stands for this setting: 12 h, replicate number 2, timepoint 12 hours.
The mark [13] stands for this setting: 24 h, replicate number 2, timepoint 24 hours.
Also: unitless GR value; below 1 slowed growth and below 0 cell loss.

On to `O=c1nc2[nH]c3ccccc3nc-2c(=O)[nH]1` [ALLOXAZINE], for which the “Growth Rate” value was 0.68 in data set [1] (setting [4]); 0.97 in data set [1] (setting [5]); 0.81 in data set [1] (setting [6]); 0.9 in data set [1] (setting [7]); -0.4 in data set [2] (setting [8]); 0.73 in data set [2] (setting [4]). Besides, the “Growth Rate” value in data set [2] (setting [9]) is 0.04; in data set [3] (setting [8]), 0.16; in data set [3] (setting [4]), -1; in data set [3] (setting [10]), 0.95.

Take `COc1ccccc1N1CCN(C[C@@H](C(=O)NC(C)(C)C)c2ccccc2)CC1.Cl.Cl`: the “Growth Rate” value in data set [1] (setting [8]) is reported as 0.89; in data set [1] (setting [11]), 0.54; in data set [1] (setting [12]) it was 0.79; in data set [2] (setting [4]) it was 0.48; in data set [2] (setting [9]), 0.54; in data set [2] (setting [11]), 0.96. For the same compound, the “Growth Rate” value in data set [2] (setting [5]) is 0.69; in data set [2] (setting [6]), 1; in data set [2] (setting [7]), 0.57; in data set [3] (setting [4]), -0.77; in data set [3] (setting [9]) it was 0.29; in data set [3] (setting [6]), 0.77. The “Growth Rate” value in data set [3] (setting [10]) was 0.92; in data set [3] (setting [13]) it was 1.

Take `Cc1cc(C)cc([C@H]2c3cc(C)ccc3NC(=O)CN2C(=O)c2ccc(Br)s2)c1`: the “Growth Rate” value in data set [1] (setting [8]) is reported as -0.3; in data set [1] (setting [4]), 0.03; in data set [1] (setting [9]), 0.95; in data set [1] (setting [5]), 0.79; in data set [1] (setting [12]) it was 0.81; in data set [1] (setting [6]) it was 0.58. The “Growth Rate” value in data set [1] (setting [10]) amounted to 0.92; in data set [1] (setting [7]), 0.65; in data set [1] (setting [13]), 0.83; in data set [2] (setting [8]), 0.07; in data set [2] (setting [4]), 0.88; in data set [2] (setting [9]), 0.06. Besides, the “Growth Rate” value is 0.6 in data set [2] (setting [5]); 0.64 in data set [2] (setting [12]); 0.44 in data set [2] (setting [6]); 0.33 in data set [2] (setting [7]); 0.97 in data set [2] (setting [13]); -0.56 in data set [3] (setting [8]). Moreover, the “Growth Rate” value in data set [3] (setting [9]) worked out at 0.12; in data set [3] (setting [5]) it was 0.65; in data set [3] (setting [6]) it was 0.52; in data set [3] (setting [10]), 0.88; in data set [3] (setting [7]), 0.67; in data set [3] (setting [13]), 0.94.

As for `CCCC(CCC)C(=O)O` [VALPROIC ACID], the “Growth Rate” value in data set [1] (setting [8]) is given as 0.84; in data set [1] (setting [4]) it was 0.39; in data set [1] (setting [9]), 0.68; in data set [1] (setting [6]), 0.94; in data set [1] (setting [7]) it was 0.87; in data set [2] (setting [4]), 0.88. Also, the “Growth Rate” value in data set [2] (setting [9]) is recorded as 0.27; in data set [2] (setting [5]), 0.85; in data set [3] (setting [8]), 0.41; in data set [3] (setting [4]), -1; in data set [3] (setting [11]) it was 0.75; in data set [3] (setting [5]), 0.96. The figures for the “Growth Rate” value in data set [3] (setting [6]) and in data set [3] (setting [10]) were 0.9 and 0.81, respectively.
